“And” between values parts separate entries of the source, which are not always exact repeats. Equal entries are not always repeated. Where two headings read alike, the source gives them in different places.
What was measured:
[1] = system: P. berghei-ANKA-GFP-LucCON liver stage parasites in HepG2-A16-CD81EGFP cells; test: P. berghei liver stage Pb-Luc assay, Method 1 (UCSD, 1536-well); type: cell-based, Plasmodium berghei; details: for PbLuc 1uM growth rep1 / PbLuc 1uM growth rep2 / PbLuc 3uM growth rep1 / PbLuc 3uM growth rep2 / activity at 1 µM / activity at 3 µM: average of 2 wells on a 1536 well plate; for activity at 1 µM / activity at 3 µM: Plasmodium berghei, 48 h; for Average P. berghei 3 µM response( %) / Average P. berghei 1 µM response (%): averaged response (percent); for Average P. berghei 1 µM response (%): the header list (r8) defines it as the 1 µM dose
HepG2-A16-CD81EGFP cells = details: for HepG2 1uM growth rep1 / HepG2 1uM growth rep2: HepG2, 1 µM compound treatment (10 mM stocks); for HepG2 1uM growth rep1 / HepG2 3uM growth rep1: replicate 1, normalized; for HepG2 1uM growth rep1 / HepG2 1uM growth rep2 / HepG2 3uM growth rep1 / HepG2 3uM growth rep2: average of 2 wells; for HepG2 1uM growth rep2 / HepG2 3uM growth rep2: replicate 2, normalized; for HepG2 3uM growth rep1 / HepG2 3uM growth rep2: HepG2, 3 µM compound treatment (10 mM stocks); for Average HepG2 3 µM response( %): averaged response (percent)
in vitro = details: human, HepG2-A16-CD81EGFP cells, uninfected
[2] = system: Plasmodium falciparum Dd2 asexual blood stage parasites; test: microbe, parasite or virus in culture; set-up: species or system Plasmodium falciparum Dd2 in human erythrocytes; single determination (one 11-point concentration-response curve); details: Plasmodium falciparum, DD2, Erythrocyte, 72 h; read-out: AC50
[3] = P. berghei liver stage, 1 µM compound treatment (10 mM stocks), replicate 1, normalized
[4] = P. berghei liver stage, 1 µM compound treatment (10 mM stocks), replicate 2, normalized
[5] = P. berghei liver stage, 3 µM compound treatment (10 mM stocks), replicate 1, normalized
[6] = P. berghei liver stage, 3 µM compound treatment (10 mM stocks), replicate 2, normalized
[7] = P. berghei liver stage, 1 µM compound treatment (10 mM stocks), replicate 1, normalized, read-out: PbLuc 1uM growth rep1
[8] = P. berghei liver stage, 1 µM compound treatment (10 mM stocks), replicate 2, normalized, read-out: PbLuc 1uM growth rep2
[9] = P. berghei liver stage, 3 µM compound treatment (10 mM stocks), replicate 1, normalized, read-out: PbLuc 3uM growth rep1
[10] = P. berghei liver stage, 3 µM compound treatment (10 mM stocks), replicate 2, normalized, read-out: PbLuc 3uM growth rep2
[11] = HepG2, the header list (r10) describes it as the 1 µM dose
[12] = 1 uM (compounds provided at 10 mM), column 11, read-out: Pb-Luc (P. berghei liver stage), % of control, lower concentration, first repeat
[13] = 1 uM (compounds provided at 10 mM), column 12, read-out: Pb-Luc (P. berghei liver stage), % of control, lower concentration, second repeat
[14] = 3 uM (compounds provided at 10 mM), column 8, read-out: Pb-Luc (P. berghei liver stage), % of control, higher concentration, first repeat
[15] = 3 uM (compounds provided at 10 mM), column 9, read-out: Pb-Luc (P. berghei liver stage), % of control, higher concentration, second repeat

SMILES | PbLuc 1uM growth rep1 [1, 3] [%] | PbLuc 1uM growth rep2 [1, 4] [%] | PbLuc 3uM growth rep1 [1, 5] [%] | PbLuc 3uM growth rep2 [1, 6] [%] | HepG2 1uM growth rep1 (HepG2-A16-CD81EGFP cells) [%] | HepG2 1uM growth rep2 (HepG2-A16-CD81EGFP cells) [%] | HepG2 3uM growth rep1 (HepG2-A16-CD81EGFP cells) [%] | HepG2 3uM growth rep2 (HepG2-A16-CD81EGFP cells) [%] | also measured
Cc1ccc(Nc2cc(C)c3ccc(O)cc3n2)cc1C.Cl [MLS000674791-01] | 115 | 107 | 69 | 101 | 98 | 92 | 89 | 95 | –
C=C(C)CSc1nc2sc3c(c2c(=O)n1-c1ccc(C)cc1)CCN(C)C3 [MLS001173676-01] | 91 | 84 | 44 | 74 | 102 | 92 | 84 | 90 | –
CC(=O)OC[C@]12CCC(C)=C[C@H]1O[C@@H]1[C@H](O)[C@@H](OC(C)=O)[C@@]2(C)[C@]12CO2 [MLS000863617-01] | – | – | – | – | – | – | – | – | Pb-Luc (P. berghei liver stage luciferase signal), % of control, repeat 1 [1]: 4.68% and -0.33%; Pb-Luc (P. berghei liver stage luciferase signal), % of control, repeat 2 [1]: 4.34% and -1.04%; Pb-Luc (P. berghei liver stage luciferase signal), % of control, repeat 3 [1]: -2.60% and 1.77%; HepG2 viability, % of control, column 14 (HepG2-A16-CD81EGFP cells): 5.74%; HepG2 viability, % of control, column 15 (HepG2-A16-CD81EGFP cells): 8.75%; HepG2 viability, % of control, column 16 (HepG2-A16-CD81EGFP cells): 5.74%; HepG2 viability, % of control, column 17 (HepG2-A16-CD81EGFP cells): 8.75%
Cc1ccc(-c2cc(C(=O)Nc3ccc(S(=O)(=O)N4CC(C)OC(C)C4)cc3)[nH]n2)c(O)c1 (centres unmarked) [MLS000779230-01] | 151 | 112 | 73 | 94 | 106 | 100 | 84 | 94 | –
CCSc1nc2sc3c(c2c(=O)n1-c1ccccc1)CCN(C(C)C)C3 [MLS001173590-01] | 97 | 84 | 60 | 65 | 104 | 95 | 87 | 98 | –
O=C(CCCCCCC(=O)Nc1ccccc1)NO [NCGC00168085-22] | – | – | – | – | – | – | – | – | Pb-Luc signal, 1 uM, repeat 1 ([1]; nominal 1 uM (10 mM stock), […] for 15 mM, 1.2 uM for 12 mM, 2 uM for 20 mM stock, average of 2 wells, 1536-well plate, repeat 1): 18.69%; Pb-Luc signal, 1 uM, repeat 2 ([1]; nominal 1 uM (10 mM stock), […] for 15 mM, 1.2 uM for 12 mM, 2 uM for 20 mM stock, average of 2 wells, 1536-well plate, repeat 2): 22.42%; Pb-Luc signal, 1 uM, repeat 3 ([1]; nominal 1 uM (10 mM stock), […] for 15 mM, 1.2 uM for 12 mM, 2 uM for 20 mM stock, average of 2 wells, 1536-well plate, repeat 3): 16.08%; Pb-Luc signal, 3 uM, repeat 1 ([1]; nominal 3 uM (10 mM stock), 4.5 uM for 15 mM, 3.6 uM for 12 mM, 6 uM for 20 mM stock, average of 2 wells, 1536-well plate, repeat 1): 2.01%; Pb-Luc signal, 3 uM, repeat 2 ([1]; nominal 3 uM (10 mM stock), 4.5 uM for 15 mM, 3.6 uM for 12 mM, 6 uM for 20 mM stock, average of 2 wells, 1536-well plate, repeat 2): 4.89%; Pb-Luc signal, 3 uM, repeat 3 ([1]; nominal 3 uM (10 mM stock), 4.5 uM for 15 mM, 3.6 uM for 12 mM, 6 uM for 20 mM stock, average of 2 wells, 1536-well plate, repeat 3): 2.03%; HepG2 viability signal, 1 uM, repeat 1 (HepG2-A16-CD81EGFP cells): 84.33%; HepG2 viability signal, 1 uM, repeat 2 (HepG2-A16-CD81EGFP cells): 78.31%; HepG2 viability signal, 3 uM, repeat 1 (HepG2-A16-CD81EGFP cells): 48.31%; HepG2 viability signal, 3 uM, repeat 2 (HepG2-A16-CD81EGFP cells): 48.65%
Cc1ccc(Nc2cc(C)nc(NCc3ccccc3)n2)cc1 [MLS000574704-01] | – | – | – | – | 83 | 84 | 81 | 80 | activity at 1 µM [1, 7]: 61%; activity at 1 µM [1, 8]: 54%; activity at 3 µM [1, 9]: 31%; activity at 3 µM [1, 10]: 43%
COc1cc(OC)c(OC)cc1CN1CCc2nc(N(C)C)[nH]c(=O)c2CC1 [NCGC00440589] | – | – | – | – | – | – | – | – | Average P. berghei 3 µM response( %) ([1]; P. berghei liver stage): 112%; Average P. berghei 1 µM response (%) ([1]; P. berghei liver stage): 99%; Average HepG2 3 µM response( %) (HepG2-A16-CD81EGFP cells; HepG2, 3 µM dose): 100%; Average HepG2 3 µM response( %) (HepG2-A16-CD81EGFP cells; [11]): 102%
Br.N=c1n(CCN2CCCCC2)c2ccccc2n1CC(=O)c1ccc(Cl)c(Cl)c1 [MLS001042209-01] | 90 | 95 | 75 | 102 | 87 | 90 | 85 | 90 | –
Cc1cc(C)n(Cc2ccc(C(=O)N3CCC(c4noc(-c5cccnc5)n4)C3)o2)n1 (centres unmarked) [NCGC00441856] | – | – | – | – | – | – | – | – | Average P. berghei 3 µM response( %) ([1]; P. berghei liver stage): 100%; Average P. berghei 1 µM response (%) ([1]; P. berghei liver stage): 107%; Average HepG2 3 µM response( %) (HepG2-A16-CD81EGFP cells; HepG2, 3 µM dose): 104%; Average HepG2 3 µM response( %) (HepG2-A16-CD81EGFP cells; [11]): 103%
Oc1ccccc1Nc1nc(NCc2ccccc2)c2ccccc2n1 [MLS000693415-01] | – | – | – | – | 89 | 90 | 92 | 90 | activity at 1 µM [1, 7]: 72%; activity at 1 µM [1, 8]: 80%; activity at 3 µM [1, 9]: 65%; activity at 3 µM [1, 10]: 75%
Cc1ccc(NC2=C/C(=N/S(=O)(=O)c3cccs3)c3ccccc3C2=O)cc1C [MLS000585841-01] | 82 | 86 | 57 | 72 | 102 | 96 | 77 | 86 | –
O=C1N(c2ccccc2C(F)(F)F)OC1(Cc1ccccc1)c1ccccc1 (centres unmarked) [MLS002206595-01] | 103 | 105 | 93 | 118 | 104 | 93 | 82 | 88 | –
CC1=C(CC(=O)c2ccc(Cl)cc2)C(=O)c2ccccc2C1=O [MLS000543314-01] | – | – | – | – | – | – | – | – | activity at 1 µM [1, 12]: 78%; activity at 1 µM [1, 13]: 79%; activity at 3 µM [1, 14]: 77%; activity at 3 µM [1, 15]: 70%; viability at 48 h, 1 µM (in vitro): 105%; viability at 48 h, 3 µM (in vitro): 100%; AC50 [2]: 211 nM
COc1ccc(S(=O)(=O)N2CCC3(CC2)OCCN3S(=O)(=O)c2c(C)cc(C)cc2C)cc1 [MLS001237293-01] | – | – | – | – | – | – | – | – | activity at 1 µM [1, 12]: 88%; activity at 1 µM [1, 13]: 81%; activity at 3 µM [1, 14]: 87%; activity at 3 µM [1, 15]: 75%; viability at 48 h, 1 µM (in vitro): 108%; viability at 48 h, 3 µM (in vitro): 103%; AC50 [2]: 2660 nM
CC(C)N(Cc1ccccc1)C(=O)CN1C(=O)COc2ccc(S(=O)(=O)N3CCCCCC3)cc21 [MLS001124552-01] | 121 | 115 | 113 | 144 | 91 | 91 | 88 | 90 | –
CCOC(=O)c1c(C)oc2c1C(=O)c1ccccc1C2=O [MLS000684830-01] | – | – | – | – | – | – | – | – | activity at 1 µM [1, 12]: 95%; activity at 1 µM [1, 13]: 85%; activity at 3 µM [1, 14]: 72%; activity at 3 µM [1, 15]: 93%; viability at 48 h, 1 µM (in vitro): 105%; viability at 48 h, 3 µM (in vitro): 99%; AC50 [2]: 422 nM
CCOc1ccc(NC(=O)CN2C(=O)NC(C)(c3ccc(OC(F)F)cc3)C2=O)cc1 (centres unmarked) [MLS001193353-01] | – | – | – | – | – | – | – | – | activity at 1 µM [1, 12]: 120%; activity at 1 µM [1, 13]: 108%; activity at 3 µM [1, 14]: 48%; activity at 3 µM [1, 15]: 87%; viability at 48 h, 1 µM (in vitro): 109%; viability at 48 h, 3 µM (in vitro): 103%; AC50 [2]: 9440 nM
Cc1ccc(NC(=O)c2cc(C(=O)c3cc(Cl)ccc3O)cn(-c3ccc(C)cc3)c2=O)cc1 [MLS000374606-01] | – | – | – | – | – | – | – | – | activity at 1 µM [1, 12]: 98%; activity at 1 µM [1, 13]: 87%; activity at 3 µM [1, 14]: 59%; activity at 3 µM [1, 15]: 61%; viability at 48 h, 1 µM (in vitro): 106%; viability at 48 h, 3 µM (in vitro): 93%; AC50 [2]: 422 nM

Reference: article PMC7822874, “Chemoprotective antimalarials identified through quantitative high-throughput screening of Plasmodium blood and liver stage parasites” (Scientific Reports, 2021)
